In ChEMBL document CHEMBL1938240, “Enzymatic transformation of caffeic acid with enhanced cyclooxygenase-2 inhibitory activity” (Bioorg Med Chem Lett, 2012):

Biological target: T1, Prostaglandin G/H synthase 2 (Homo sapiens, UniProt P35354)
T1 sequence (P35354 whole entry): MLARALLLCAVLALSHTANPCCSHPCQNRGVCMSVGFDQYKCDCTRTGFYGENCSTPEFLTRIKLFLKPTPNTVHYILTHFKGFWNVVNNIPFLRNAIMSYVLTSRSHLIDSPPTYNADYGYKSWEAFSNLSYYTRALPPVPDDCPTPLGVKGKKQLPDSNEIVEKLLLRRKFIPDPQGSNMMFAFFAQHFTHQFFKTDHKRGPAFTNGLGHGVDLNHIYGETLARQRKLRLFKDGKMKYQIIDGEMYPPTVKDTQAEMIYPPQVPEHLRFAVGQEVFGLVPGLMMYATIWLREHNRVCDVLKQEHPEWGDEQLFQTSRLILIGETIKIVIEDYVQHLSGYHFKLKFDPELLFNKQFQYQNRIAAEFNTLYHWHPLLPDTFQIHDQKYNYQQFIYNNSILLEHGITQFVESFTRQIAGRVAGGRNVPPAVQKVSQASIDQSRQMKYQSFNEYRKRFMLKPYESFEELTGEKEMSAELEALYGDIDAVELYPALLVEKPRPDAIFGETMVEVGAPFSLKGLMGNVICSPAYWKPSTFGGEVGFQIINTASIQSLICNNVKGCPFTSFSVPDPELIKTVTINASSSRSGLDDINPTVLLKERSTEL
Experiment: Inhibition of COX2 assessed as inhibition of PGE2 production using arachidonic acid as substrate after 10 mins by ELISA

IC50	Compound
9.8 µM	O=C(O)/C=C/C12C=C(O)C(=O)C=C1C(=O)C1=Cc3cc(O)c(O)cc3O[C@@H](c3ccc(O)c(O)c3)[C@@H]12 (relative stereo)
52.6 µM	O=C(O)/C=C/c1ccc2c(c1)O[C@@H](C(=O)O)[C@@H](c1ccc(O)c(O)c1)O2 (relative stereo)
7.5 µM	O=C(O)/C=C/c1ccc2c(c1)O[C@H](c1cc(O)cc(O)c1)[C@H](C(=O)O)O2 [CAFFEICINIC ACID]
42.6 µM	O=C1O[C@@H](c2ccc(O)c(O)c2)[C@H](C(=O)O)/C1=C\c1ccc(O)c(O)c1 [PHELLINSIN A]
